# Data taken from patent publication US6455583B1, “Method for treating meibomian gland disease” (The University of Miami, priority 1998, dated 2002).
# Values joined by “and” are separate entries in the source; they are usually repeats but may differ in a detail not shown here. Equal values may be shown once.
# Key:
# [1] = test system: patients with meibomian gland disease and delayed tear clearance; assay: Topical 0.025% doxycycline solution in patients with meibomian gland disease and delayed tear clearance (Example 6); assay type: in vivo, human
# Source text: Tetracyclines and chemically modified tetracyclines for topical administration can be added to buffered and electrolyte balanced aqueous solutions, buffered and electrolyte balanced aqueous solutions with a lubricating polymer, mineral oil or petrolatum-based ointment, other oils, liposomes, cylcodextrins, sustained release polymers or gels in a range from 0.001 to 3% (weight per volume or weight per weight). These preparations can be administered to the preocular tear film or onto the eyelid skin or lid margin 1 to 6 times per day for a period up to the lifetime of the patient. For example, an eye drop solution comprising doxycycline as an active ingredient was prepared by dissolving pharmaceutical grade doxycycline hydrochloride powder in an electrolyte-balanced salt solution (BSS™, Alcon, Ft. Worth, Tex.) to a final concentration of 0.025%.
# The solution was prepared as described herein.
# pro-MMP9 = pro-MMP9 activity in supernatant of human corneal epithelial cultures (gelatin zymogram); assay type: cell-based; details: doxycycline 5·g/ml for 24 hours, compared to untreated cultures; FIG. 8
# Protocol: FIG. 8 is a gelatin zymogram of human corneal epithelial cell supernatant: doxycycline treatment and MMP-3 activation. Lane Legend: (1) 92 kDa purified pro-MMP-9 standard (0.1 ng); (2) Corneal epithelial supernatant+50 μg/mL doxycycline; (3)Supernatant+50 μg/mL doxycycline+1.5 ng/μL MMP-3; (4) Supernatant+100 μg/mL doxycycline+1.5 ng/μL MMP-3; (5) Supernatant from cell culture pre-treated with doxycycline; (6) Supernatant from cell culture pre-treated with doxycycline+1.5 ng/μL MMP-3. Exposure of human corneal epithelial cultures to doxycycline (5·g/ml) for 24 hours decreased the level of pro-MMP9 activity in the supernatant by 70% compared to untreated cultures (FIG. 8). MMP-9 is the metalloproteinase responsible for initiating sterile corneal ulceration and it is also capable of cleaving precursor IL-1β into its mature form.
# [2] = test system: patients with ocular rosacea; assay: Topical oxytetracycline ointment in patients with meibomian gland disease associated with rosacea and delayed tear clearance (Example 5); assay type: in vivo, human; set-up: key to Clinical Response (per patient): Excellent response, complete or almost complete relief of symptoms.; Good response, symptoms moderately, but not completed relieved
# Protocol: Eleven ( 11) patients with ocular irritation symptoms due to meibomian gland disease associated with rosacea and delayed tear clearance were treated with a commercially available oxytetracycline ointment (Terak, Akorn Pharmaceuticals) as a topical administration to the ocular surface or the eyelids. Seventy-three percent (73%) of these patients had complete resolution of irritation symptoms.
# IL-1RA = IL-1RA release by human corneal epithelial cell cultures; assay type: cell-based; details: 24 h, FIG. 7
# Protocol: Media=negative control; LPS=cultures treated with lipopolysaccharide for 24 h; Doxy=cultures treated with doxycycline (5 μg/ml) for 24 h; CMT 3=cultures treated with chemically modified tetracycline CMT 3 (1 μg/ml) for 24 hr; Doxy+LPS=cultures treated with LPS and doxycycline (5 μg/ml) for 24 h; CMT 3+LPS=cultures treated with LPS and chemically modified tetracycline CMT 3 (1 μg/ml) for 24 hr.
# IL-1RA has an anti-inflammatory effect by competing with the pro-inflammatory forms of IL-1 (IL-1α and IL-1β) for the type 1 receptor. […] Furthermore, the concentration of IL-1RA in corneal epithelial cultures stimulated with LPS and treated with either doxycycline or CMT-3 was greater than cultures exposed to LPS alone (FIG. 7). These findings indicate tetracyclines are anti-inflammatory due to their ability to stimulate IL-1RA release by the human corneal epithelium.
smiles,measurement,setting,value
C[C@H]1c2cccc(O)c2C(=O)C2=C(O)[C@]3(O)C(=O)C(C(N)=O)=C(O)[C@@H](N(C)C)[C@@H]3[C@@H](O)[C@@H]21 [doxycycline],RESPONSE (per patient),"[1]; 0.025% topical doxycycline solution, one line per patient 1-11, diagnosis MGD, DTC",no effect
same,patients with complete resolution of symptoms,"[1]; topical solution (doxycycline eye drops), 11 patients",more than 90%
same,decrease of the level of pro-MMP9 activity in the supernatant,pro-MMP9,70%
CN(C)[C@@H]1C(O)=C(C(N)=O)C(=O)[C@@]2(O)C(O)=C3C(=O)c4c(O)cccc4[C@@](C)(O)[C@H]3[C@H](O)[C@@H]12 [oxytetracycline],patients with complete resolution of (irritation) symptoms,"[2]; topical ointment to ocular surface or eyelids, 11 patients",73%
same,patients who experienced burning from the medication,"[2]; topical ointment, 11 patients, one of which ceased treatment",Three
same,Clinical Response (per patient),"[2]; topical oxytetracycline ointment, one line per patient 1-11",G (3×) and E (8×)
same,"Comments (tolerability, per patient)","[2]; topical oxytetracycline ointment, per patient",mild burning
NC(=O)C1=C(O)C[C@@H]2C[C@@H]3Cc4cccc(O)c4C(=O)C3=C(O)[C@]2(O)C1=O [CMT-3],concentration of IL-1RA in LPS-stimulated cultures compared to LPS alone,IL-1RA; LPS + doxycycline 5 μg/ml or CMT 3 1 μg/ml,greater
same,release of IL-1RA into the media compared to untreated cultures,IL-1RA; doxycycline 5 μg/ml or CMT 3 1 μg/ml,significantly increased
